Measured values published in US12115208B2, “Small-molecule adjuvants for antibiotics to address antibiotic resistance” (HIGH POINT UNIVERSITY, priority 2017, dated 2024).
pIC50: −log10 of the molar value. Like-named read-outs stand apart in the source and are kept apart here. Blank lines part the entries; values can stand above or below the molecule they belong to.

Experiments:
[1] = system: S. aureus ATCC 43300 (MRSA); assay: Minimum inhibitory concentration, broth microdilution; format: cell-based, Staphylococcus aureus; settings: compound alone, S. aureus ATCC 43300 (MRSA), CAMHB, 18 h, read-out: MIC
Method: (§1) The compounds were then analyzed for antibiotic repotentiation activity. […] The tested strains included USA300, which is a common and particularly virulent strain of community-acquired MRSA.

[2] = system: S. aureus USA300 (MRSA); assay: as above; format: cell-based, Staphylococcus aureus; settings: compound alone, S. aureus USA300 (MRSA), CAMHB, 18 h, read-out: MIC
Method: as §1

[3] = system: S. aureus USA100 (MRSA); assay: microbe, parasite or virus in culture; format: cell-based, Staphylococcus aureus; settings: compound alone, CAMHB, 18 h
[4] = system: S. aureus 43300 (MRSA); assay: Antibiotic repotentiation (antibiotic MIC with/without compound); format: cell-based, Staphylococcus aureus
Method: (§2) The overnight culture was diluted into fresh CAMHB to a concentration of 5×10^5 CFU/ml. […] On the same plate, a standard microdilution MIC with the tested antibiotics and no added compound was also performed to compare the antibiotic MIC in the presence and absence of compound. […] Fold reductions were calculated by dividing the MIC of the antibiotic without compound by the MIC of the antibiotic in the presence of compound.
as §1

[5] = system: S. aureus USA300 (MRSA); assay: as above; format: cell-based, Staphylococcus aureus; settings: for Oxacillin MIC / Fold Reduction: +50 μM compound, S. aureus USA300 (MRSA); for Fold Reduction: oxacillin MIC; for MIC of antibiotic: MRSA USA300
Method: as §2, §1

[6] = system: S. aureus USA100 (MRSA); assay: as above; format: cell-based, Staphylococcus aureus
Method: as §2

[7] = system: MRSA 43300 biofilm; assay: Biofilm inhibition, crystal violet assay; format: cell-based, Staphylococcus aureus; settings: 30 h
Method: (§3) A standard static crystal violet assay was used to quantify biofilm inhibition.^45 Cultures of S. aureus or S. epidermidis were grown overnight in TSBG (tryptic soy broth with 5% glucose) at 37° C. with shaking. These cultures were used to inoculate fresh TSBG to a calculated optical density of 0.01 at 600 nm (OD600). […] Untreated aliquots were used as a positive control and water served as a negative control. 100 μl of these suspensions were added to the wells of a 96-well polyvinylchloride microtiter plate. […] After incubation, media was discarded and the plates were washed with water to remove non-adherent cells. Adherent biofilms were stained with 110 μl of crystal violet (0.1% in water) and incubated at room temperature for thirty minutes. The crystal violet staining solution was discarded and plates were washed with water to remove excess stain. The resulting stained biofilms were solubilized with 200 μL of 95% ethanol for 10 minutes. 125 μl of the ethanol solutions were transferred to a clear polystyrene microtiter plate for evaluation. Absorbance at 540 nm was recorded using a BioTek Synergy H1 microplate reader. The absorbance of the negative control lanes was subtracted from the experimental values to account for background staining. Percent inhibition was calculated by comparison of the absorbance values of control versus treated wells under identical conditions.
Antibiotic resistance and biofilm formation share similar regulatory mechanisms. […] Biofilm inhibition was first assessed in S. aureus 43300, a methicillin-resistant strain (see Table 18). As described in Materials and Methods, a standard crystal violet assay was used to assess biofilm inhibition by the tested compounds. The IC50 is described as the compound concentration required to inhibit 50% of biofilm formation. The standard deviation is calculated from at least 3 independent experiments.

[8] = system: S. epidermidis ATCC 49461 biofilm; assay: Biofilm inhibition, crystal violet assay; format: cell-based, Staphylococcus epidermidis; settings: 30 h, read-out: Inhibition of biofilm formation IC50
Method: as §3

[9] = system: S. aureus ATCC 29213; assay: Minimum inhibitory concentration, broth microdilution; format: cell-based; settings: Staphylococcus aureus, ATCC29213; compound alone; S. aureus ATCC 29213; CAMHB, 18 h; read-out: MIC
Method: as §1

[10] = system: S. epidermidis 49461; assay: Antibiotic repotentiation (oxacillin MIC with/without compound); format: cell-based, Staphylococcus epidermidis; settings: +75 μM compound; S. epidermidis 49461
Method: as §2
Antibiotic potentiation in S. epidermidis was also investigated.

[11] = system: S. aureus NR-49120 (VRSA); assay: Antibiotic repotentiation (antibiotic MIC with/without compound); format: cell-based, Staphylococcus aureus; settings: VRSA NR-49120; for Fold Reduction: antibiotic MIC
Method: as §2

[12] = +50 μM compound, S. aureus 43300 (MRSA)
[13] = oxacillin MIC, +50 μM compound, S. aureus 43300 (MRSA)
[14] = +50 μM compound, S. aureus USA100 (MRSA)
[15] = oxacillin MIC, +50 μM compound, S. aureus USA100 (MRSA)

SMILES: Brc1ccc2[nH]c3ccccc3c2c1 [IV-3]
MIC [1]: >200 µM
MIC [2]: >200 µM
MIC [3]: >200 µM
Oxacillin MIC [4, 12]: 16 µg/mL
Fold Reduction [4, 13]: 2
Oxacillin MIC [5]: 64 µg/mL
Fold Reduction [5]: 1
Oxacillin MIC [6, 14]: 512 µg/mL
Fold Reduction [6, 15]: 1

MIC [1]: 125 µM
Oxacillin MIC ([4]; +31.25 μM compound, S. aureus 43300 (MRSA)): 4 µg/mL
pIC50 [7]: 3.73
pIC50 [8]: 4.24
SMILES: Clc1cc2cccnc2c2ncccc12 [Compound V-6]
Fold Reduction ([4]; oxacillin MIC, +31.25 μM compound, S. aureus 43300 (MRSA)): 8

SMILES: c1ccc2c(c1)[nH]c1ccccc12 [IV-1]
MIC [1]: >200 µM
MIC [2]: >200 µM
MIC [3]: >200 µM
Oxacillin MIC [4, 12]: 32 µg/mL
Fold Reduction [4, 13]: 1
Oxacillin MIC [5]: 64 µg/mL
Fold Reduction [5]: 1
Oxacillin MIC [6, 14]: 512 µg/mL
Fold Reduction [6, 15]: 1

MIC [9]: 1200 µM
MIC ([1]; Staphylococcus aureus): 600 µM
MIC ([2]; Staphylococcus aureus): 600 µM
Oxacillin MIC [10]: 16 µg/mL
SMILES: CN1CCN(C2=Nc3cc(Cl)ccc3Nc3ccccc32)CC1 [Clozapine, 8-chloro-11-(4-methyl-1-piperazinyl)-5H-dibenzo[b,e][1,4]diazepine, reference compound]

MIC of antibiotic ([4]; +Amoxapine (150 μM), S. aureus 43300 (MRSA)): 4 µg/mL
MIC of antibiotic ([4]; +Loratadine 25 μM, MRSA 43300): 16/8
MIC of antibiotic ([4]; +Loratadine 50 μM, MRSA 43300): 1/2
MIC of antibiotic ([4]; antibiotic alone, no compound, S. aureus 43300 (MRSA)): 32 µg/mL
MIC of antibiotic ([4]; antibiotic alone, S. aureus ATCC 43300 (MRSA)): 16 µg/mL
MIC of antibiotic ([5]; +Loratadine 25 μM): 8 µg/mL
MIC of antibiotic ([5]; +Loratadine 50 μM): 0.5 µg/mL
MIC of antibiotic ([5]; antibiotic alone): 8 µg/mL
MIC of antibiotic ([11]; +Loratadine 25 μM): 16 µg/mL
MIC of antibiotic ([11]; +Loratadine 50 μM): 4 µg/mL
MIC of antibiotic ([11]; antibiotic alone): 16 µg/mL
MIC of antibiotic ([6]; +Loratadine 25 μM, MRSA USA100): 16 µg/mL
MIC of antibiotic ([6]; +Loratadine 50 μM, MRSA USA100): 1/2
MIC of antibiotic ([6]; antibiotic alone, MRSA USA100): 32 µg/mL
SMILES: CC1(C)S[C@@H]2[C@H](NC(=O)[C@H](N)c3ccccc3)C(=O)N2[C@H]1C(=O)O [Ampicillin]
Fold Reduction ([4]; antibiotic MIC, +Amoxapine (150 μM), S. aureus 43300 (MRSA)): 8
Fold Reduction ([4]; antibiotic MIC, +Loratadine 25 μM, MRSA 43300): 1/2
Fold Reduction ([4]; antibiotic MIC, +Loratadine 50 μM, MRSA 43300): 4
Fold Reduction ([11]; +Loratadine 25 μM): 1
Fold Reduction ([11]; +Loratadine 50 μM): 4
Fold Reduction ([6]; antibiotic MIC, +Loratadine 25 μM, MRSA USA100): 2
Fold Reduction ([6]; antibiotic MIC, +Loratadine 50 μM, MRSA USA100): 32/16

SMILES: Brc1ccc2[nH]c3ccc(Br)cc3c2c1 [IV-5]
MIC [1]: >200 µM
MIC [2]: >200 µM
MIC [3]: >200 µM
Oxacillin MIC [4, 12]: 8/4
Fold Reduction [4, 13]: 4/8
Oxacillin MIC [5]: 32 µg/mL
Fold Reduction [5]: 2
Oxacillin MIC [6, 14]: 4 µg/mL
Fold Reduction [6, 15]: 128
